In patent US4401604A, “Process for preparing thiosulfenamide derivatives of N-phosphonomethylglycine triesters” (Monsanto Company, priority 1981, dated 1983):

Key:
Assay in all cases: Pre-emergent herbicidal activity
Type in all cases: in vivo
Settings in all cases: Table III; 11.2 kg/h; 2 WAT
Canada Thistle = system: Canada Thistle
Summary of the method: (§1)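 Seeds or vegetative propagules were pressed onto compacted top soil, then covered with soil premixed with a known amount of active ingredient. Pans were bottom-watered and kept on a wet sand bench in ordinary sunlight for about two weeks. Emerged plants were counted against untreated controls and scored as an index of average percent control.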

Barnyardgrass = system: Barnyardgrass
Summary of the method: as §1

Quackgrass = system: Quackgrass
Summary of the method: as §1

Johnsongrass = system: Johnsongrass
Summary of the method: as §1

Lambsquarters = system: Lambsquarters
Summary of the method: as §1

Morningglory = system: Morningglory
Summary of the method: as §1

Velvetleaf = system: Velvetleaf
Summary of the method: as §1

Smartweed = system: Smartweed
Summary of the method: as §1

Cocklebur = system: Cocklebur
Summary of the method: as §1

Yellow Nutsedge = system: Yellow Nutsedge
Summary of the method: as §1

Downy Brome = system: Downy Brome
Summary of the method: as §1

COC(=O)CN(CP(=O)(Oc1ccccc1)Oc1ccccc1)SSC(C)C [I, Glycine, N-[(diphenoxyphosphinyl)methyl]-N-[(1-methylethyl)dithio]-, methyl ester]
pre-emergent herbicidal activity index (Canada Thistle): 3 (75-100% control) | pre-emergent herbicidal activity index (Barnyardgrass): 2 (50-74% control) | pre-emergent herbicidal activity index (Quackgrass): 3 (75-100% control) | pre-emergent herbicidal activity index (Johnsongrass): 0 (0-24% control) | pre-emergent herbicidal activity index (Lambsquarters): 3 (75-100% control) | pre-emergent herbicidal activity index (Morningglory): 1 (25-49% control) | pre-emergent herbicidal activity index (Velvetleaf): 0 (0-24% control) | pre-emergent herbicidal activity index (Smartweed): 2 (50-74% control) | pre-emergent herbicidal activity index (Cocklebur): 1 (25-49% control) | pre-emergent herbicidal activity index (Yellow Nutsedge): 3 (75-100% control) | pre-emergent herbicidal activity index (Downy Brome): 2 (50-74% control)
